Structures can show the parent of a compound that is named as a salt. Where two headings read alike, the source gives them in different places.
How the values were obtained:
SUV39H2 = SUV39H2 (Homo sapiens (Human), UniProt Q9H5I1); test: biochemical; type: biochemical; conditions: 3H-SAM 100 nM, H3 Histone Peptide 350 nM, room temperature 3 hours
How it was run: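 Human SUV39H2, at a lot-specific concentration set by specific activity, was incubated with test compounds for 3 h at room temperature, then stopped with streptavidin SPA beads (50 μg/well final).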

A549 = test: Cell-based assay, anti-proliferative activity (Cell Counting Kit-8, 72 hours); conditions: Homo sapiens, read-out: A549 IC50
How it was run: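 Cells were seeded in 96-well plates and exposed to candidate inhibitors. Cellular growth was then determined with the colorimetric kit, and IC50 values were calculated from the growth data.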

[1] = A549 cells, 72 hours exposure, Cell Counting Kit-8

Chain of SUV39H2 (Q9H5I1 whole entry): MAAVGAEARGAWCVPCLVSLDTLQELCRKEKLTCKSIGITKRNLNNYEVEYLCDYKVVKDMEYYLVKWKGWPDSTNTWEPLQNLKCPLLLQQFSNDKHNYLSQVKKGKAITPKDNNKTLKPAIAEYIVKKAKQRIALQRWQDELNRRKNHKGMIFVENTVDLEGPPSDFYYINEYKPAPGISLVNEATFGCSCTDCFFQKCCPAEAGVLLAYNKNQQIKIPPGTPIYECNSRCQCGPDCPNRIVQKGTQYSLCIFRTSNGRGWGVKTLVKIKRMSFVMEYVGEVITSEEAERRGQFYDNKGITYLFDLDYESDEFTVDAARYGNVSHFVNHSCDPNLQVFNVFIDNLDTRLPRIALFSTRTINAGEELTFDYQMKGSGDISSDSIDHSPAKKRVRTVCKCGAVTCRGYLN

COc1cc(OC)c(-c2cn3cc(-c4ccc(C#N)cc4)c(N4CC[C@H](N)C4)cc3n2)cc1Cl [Example 445, (S)-4-(7-(3-aminopyrrolidin-1-yl)-2-(5-chloro-2,4-dimethoxyphenyl)imidazo[1,2-a]pyridin-6-yl)benzonitrile dihydrochloride]
IC50 (SUV39H2): 85.9 nM
IC50 (A549; A549, 72 h): 940 nM

COc1cc(OC)c(-c2cn3ccc(N4CCN(c5cnc(N6CCCC6)nc5)CC4)cc3n2)cc1Cl [Example 333, 2-(5-chloro-2,4-dimethoxyphenyl)-7-(4-(2-(pyrrolidin-1-yl)pyrimidin-5-yl)piperazin-1-yl)imidazo[1,2-a]pyridine]
IC50 (SUV39H2): 62 nM
IC50 (A549; [1]): 720 nM

COc1cc(OC)c(-c2cn3cc(Br)c(N4CC[C@H](NCc5ccncc5)C4)cc3n2)cc1Cl [Example 438, (S)-1-(6-bromo-2-(5-chloro-2,4-dimethoxyphenyl)imidazo[1,2-a]pyridin-7-yl)-N-(pyridin-4-ylmethyl)pyrrolidin-3-amine]
IC50 (SUV39H2): 23.1 nM
IC50 (A549; [1]): 2400 nM

COc1cc(OC)c(-c2cn3ccc(N4CCC[C@H](NCC5CCN(C(=O)OC(C)(C)C)CC5)C4)cc3n2)cc1Cl [Example 454, (S)-tert-butyl 4-(((1-(2-(5-chloro-2,4-dimethoxyphenyl)imidazo[1,2-a]pyridin-7-yl)piperidin-3-yl)amino)methyl)piperidine-1-carboxylate]
IC50 (SUV39H2): 27 nM
IC50 (A549; [1]): 760 nM

COc1cc(OC)c(-c2cn3ccc(N[C@H]4CC[C@H](NCc5cccc(C#N)c5)CC4)cc3n2)cc1Cl [Example 397, 3-((((1r,4r)-4-((2-(5-chloro-2,4-dimethoxyphenyl)imidazo[1,2-a]pyridin-7-yl)amino)cyclohexyl)amino)methyl)benzonitrile]
IC50 (SUV39H2): 64.6 nM
IC50 (A549; [1]): 700 nM

COc1cc(OC)c(-c2cn3ccc(N4CC[C@H](NC(C)C5CCCCC5)C4)cc3n2)cc1Cl (stereo partly drawn) [Example 416, (3S)-1-(2-(5-chloro-2,4-dimethoxyphenyl)imidazo[1,2-a]pyridin-7-yl)-N-(1-cyclohexylethyl)pyrrolidin-3-amine]
IC50 (SUV39H2): 47.6 nM
IC50 (A549; [1]): 670 nM

COc1cc(OC(F)F)c(-c2cn3ccc(N4CC[C@H](NC(=O)OC(C)(C)C)C4)cc3n2)cc1Cl [Example 408, (S)-tert-butyl (1-(2-(5-chloro-2-(difluoromethoxy)-4-methoxyphenyl)imidazo[1,2-a]pyridine-7-yl)pyrrolidin-3-yl)carbamate]
IC50 (SUV39H2): 12.7 nM
IC50 (A549; [1]): 560 nM

COc1cc(OC)c(-c2cn3ccc(N4CCN(S(C)(=O)=O)CC4C)cc3n2)cc1Cl (stereo not shown) [Example 311, 2-(5-chloro-2,4-dimethoxyphenyl)-7-(2-methyl-4-(methylsulfonyl)piperazin-1-yl)imidazo[1,2-a]pyridine]
IC50 (SUV39H2): 4.94 nM
IC50 (A549; [1]): 3800 nM

COc1cc(OC)c(-c2cn3ccc(N4CCCN(C(C)=O)CC4)cc3n2)cc1Cl [Example 429, 1-(4-(2-(5-chloro-2,4-dimethoxyphenyl)imidazo[1,2-a]pyridin-7-yl)-1,4-diazepan-1-yl)ethanone]
IC50 (SUV39H2): 16.1 nM
IC50 (A549; [1]): 10000 nM

COc1cc(OC)c(-c2cn3ccc(N4CCN(c5ccnc(NCCCO)n5)CC4)cc3n2)cc1Cl [Example 395, 3-((4-(4-(2-(5-chloro-2,4-dimethoxyphenyl)imidazo[1,2-a]pyridine-7-yl)piperazin-1-yl)pyrimidin-2-yl)amino)propan-1-ol]
IC50 (SUV39H2): 14 nM
IC50 (A549; [1]): 770 nM

COc1cc(OC)c(-c2cn3ccc(N4CCN(c5nc(N)nc(N6CCC(N(C)C)C6)n5)CC4)cc3n2)cc1Cl (stereo not shown) [Example 436, 4-(4-(2-(5-chloro-2,4-dimethoxyphenyl)imidazo[1,2-a]pyridin-7-yl)piperazin-1-yl)-6-(3-(dimethylamino)pyrrolidin-1-yl)-1,3,5-triazin-2-amine]
IC50 (SUV39H2): 11.7 nM
IC50 (A549; [1]): 650 nM

COc1cc(OC)c(-c2cn3ccc(N[C@H]4CC[C@H](CN5CCN(c6ncccn6)CC5)CC4)cc3n2)cc1Cl [Example 316, 2-(5-chloro-2,4-dimethoxyphenyl)-N-((trans)-4-((4-(pyrimidin-2-yl)piperazin-1-yl)methyl)cyclohexyl)imidazo[1,2-a]pyridin-7-amine]
IC50 (SUV39H2): 77 nM
IC50 (A549; [1]): 700 nM

COc1cc(OC)c(-c2cn3cnc(N4CC[C@H](NC(=O)OC(C)(C)C)C4)cc3n2)cc1Cl [Example 387, (S)-tert-butyl (1-(2-(5-chloro-2,4-dimethoxyphenyl)imidazo[1,2-c]pyrimidin-7-yl)pyrrolidin-3-yl)carbamate]
IC50 (SUV39H2): 33.2 nM
IC50 (A549; [1]): 1600 nM

COc1cc(OC)c(-c2cn3ccc(N4CCN(c5cc(N6CCOCC6)nc(N)n5)CC4)cc3n2)cc1Cl [Example 384, 4-(4-(2-(5-chloro-2,4-dimethoxyphenyl)imidazo[1,2-a]pyridin-7-yl)piperazin-1-yl)-6-morpholinopyrimidin-2-amine]
IC50 (SUV39H2): 10.9 nM
IC50 (A549; [1]): 940 nM

COc1cc(OC)c(-c2cn3ccc(N4CC[C@H](NCc5ccnc(F)c5)C4)cc3n2)cc1Cl [Example 412, (S)-1-(2-(5-chloro-2,4-dimethoxyphenyl)imidazo[1,2-a]pyridin-7-yl)-N-((2-fluoropyridin-4-yl)methyl)pyrrolidin-3-amine dihydrochloride]
IC50 (SUV39H2): 6.83 nM
IC50 (A549; A549, 72 h): 850 nM

COc1cc(OC)c(-c2cn3ccc(N4CCN(c5cnc(N6CCOCC6)nc5)CC4)cc3n2)cc1Cl [Example 335, 4-(5-(4-(2-(5-chloro-2,4-dimethoxyphenyl)imidazo[1,2-a]pyridin-7-yl)piperazin-1-yl)pyrimidin-2-yl)morpholine]
IC50 (SUV39H2): 68.5 nM
IC50 (A549; [1]): 690 nM

COc1cc(OC)c(-c2cn3ccc(N4CCN(c5cc(Cl)nc(N)n5)CC4)cc3n2)cc1Cl [Example 360, 4-chloro-6-(4-(2-(5-chloro-2,4-dimethoxyphenyl)imidazo[1,2-a]pyridin-7-yl)piperazin-1-yl)pyrimidin-2-amine]
IC50 (SUV39H2): 56 nM
IC50 (A549; [1]): 620 nM

COc1cc(OC)c(-c2cn3ccc(N[C@H]4CC[C@@H](NCC5CCN(C(=O)OC(C)(C)C)CC5)CC4)cc3n2)cc1Cl [Example 423, tert-butyl 4-(((cis-4-((2-(5-chloro-2,4-dimethoxyphenyl)imidazo[1,2-a]pyridin-7-yl)amino)cyclohexyl)amino)methyl)piperidine-1-carboxylate]
IC50 (SUV39H2): 26.9 nM
IC50 (A549; [1]): 590 nM

COc1cc(OCCCN(C)C)c(-c2cn3ccc(N4CC[C@H](N)C4)cc3n2)cc1Cl [Example 432, (S)-1-(2-(5-chloro-2-(3-(dimethylamino)propoxy)-4-methoxyphenyl)imidazo[1,2-a]pyridin-7-yl)pyrrolidin-3-amine]
IC50 (SUV39H2): 31.8 nM
IC50 (A549; [1]): 710 nM

COc1cc(OC)c(-c2cn3ccc(N4CCN(c5nccc(N6CCC(N)C6)n5)CC4)cc3n2)cc1Cl (stereo not shown) [Example 405, 1-(2-(4-(2-(5-chloro-2,4-dimethoxyphenyl)imidazo[1,2-a]pyridin-7-yl)piperazin-1-yl)pyrimidin-4-yl)pyrrolidin-3-amine]
IC50 (SUV39H2): 15.3 nM
IC50 (A549; [1]): 690 nM

CNc1ncc(N2CCN(c3ccn4cc(-c5cc(Cl)c(OC)cc5OC)nc4c3)CC2)cn1 [Example 340, 5-(4-(2-(5-chloro-2,4-dimethoxyphenyl)imidazo[1,2-a]pyridin-7-yl)piperazin-1-yl)-N-methylpyrimidin-2-amine trifluoroacetate]
IC50 (SUV39H2): 17.1 nM
IC50 (A549; [1]): 690 nM

COc1cc(OC)c(-c2cn3ccc(N4CCN(C(=O)c5ccncc5)CC4)cc3n2)cc1Cl [Example 319, (4-(2-(5-chloro-2,4-dimethoxyphenyl)imidazo[1,2-a]pyridin-7-yl)piperazin-1-yl)(pyridin-4-yl)methanone]
IC50 (SUV39H2): 16.4 nM
IC50 (A549; [1]): 4600 nM

COc1cc(OC)c(-c2cn3ccc(N4CCN(c5cncnc5)CC4)cc3n2)cc1Cl [Example 317, 2-(5-chloro-2,4-dimethoxyphenyl)-7-(4-(pyrimidin-5-yl)piperazin-1-yl)imidazo[1,2-a]pyridine]
IC50 (SUV39H2): 11.6 nM
IC50 (A549; [1]): 650 nM

COc1cc(OC)c(-c2cn3ccc(N4CCN(c5ccnc(N6CCC(CO)C6)n5)CC4)cc3n2)cc1Cl (stereo not shown) [Example 367, (1-(4-(4-(2-(5-chloro-2,4-dimethoxyphenyl)imidazo[1,2-a]pyridine-7-yl)piperazin-1-yl)pyrimidin-2-yl)pyrrolidin-3-yl)methanol]
IC50 (SUV39H2): 26.2 nM
IC50 (A549; [1]): 980 nM

COc1cc(OC)c(-c2cn3ccc(N[C@H]4CC[C@@H](NCc5ccc([N+](=O)[O-])cc5)CC4)cc3n2)cc1Cl [Example 411, cis-N^1-(2-(5-chloro-2,4-dimethoxyphenyl)imidazo[1,2-a]pyridin-7-yl)-N^4-(4-nitrobenzyl)cyclohexane-1,4-diamine]
IC50 (SUV39H2): 26.3 nM
IC50 (A549; [1]): 370 nM

COc1cc(OC)c(-c2cn3ccc(N4CCC(C(=O)NC5CCCCC5)CC4)cc3n2)cc1Cl [Example 453, 1-(2-(5-chloro-2,4-dimethoxyphenyl)imidazo[1,2-a]pyridin-7-yl)-N-cyclohexylpiperidine-4-carboxamide]
IC50 (SUV39H2): 10.5 nM
IC50 (A549; [1]): 540 nM

COc1cc(OC)c(-c2cn3ccc(N4CCC(CNC(=O)OC(C)(C)C)C4)cc3n2)cc1Cl (stereo not shown) [Example 459, tert-butyl ((1-(2-(5-chloro-2,4-dimethoxyphenyl)imidazo[1,2-a]pyridin-7-yl)pyrrolidin-3-yl)methyl)carbamate]
IC50 (SUV39H2): 7.69 nM
IC50 (A549; [1]): 990 nM

COc1cc(OC)c(-c2cn3ccc(N4CCN(c5nccc(N)c5F)CC4)cc3n2)cc1Cl [Example 365, 2-(4-(2-(5-chloro-2,4-dimethoxyphenyl)imidazo[1,2-a]pyridin-7-yl)piperazin-1-yl)-3-fluoropyridin-4-amine formate]
IC50 (SUV39H2): 29.7 nM
IC50 (A549; A549, 72 h): 630 nM

COc1cc(OC)c(-c2cn3ccc(N[C@H]4CC[C@H](NCc5cccc(C)c5)CC4)cc3n2)cc1Cl [Example 415, (1r,4r)-N^1-(2-(5-chloro-2,4-dimethoxyphenyl)imidazo[1,2-a]pyridin-7-yl)-N^4-(3-methylbenzyl)cyclohexane-1,4-diamine]
IC50 (SUV39H2): 98 nM
IC50 (A549; [1]): 620 nM

Reference: patent US10508109B2 (priority 2015, dated 2019)
